Columns and labels:
Assay type in all cases: biochemical
[1] = system: Factor IX deficient plasma; test: relative coagulant activity of factor IX proteins (zymogens); settings: for relative coagulant activity: factor IX proteins before activation, IXNP = 100%
From the text: The following reagents were used. Benzoyl-Ile-Glu-Gly-Arg-p-nitroanilide (SEQ ID NO: 17) (S-2222) was purchased from Helena Laboratories. Dansyl-Glu-Gly-Arg-chloromethyl ketone (DEGR-ck) was obtained from Calbiochem. Phosphatidylcholine, phosphatidylserine, recombinant hirudin, and fatty acid free bovine serum albumin (BSA) were obtained from Sigma Chemical Co. Factor IX and factor VIII deficient plasmas were purchased from George King Biomedicals and aPTT reagent was obtained from Diagnostica Stago. Normal human plasma factor IX (IXNP) and factor X were isolated as described in Bajaj and Birktoft, 1993, Methods Enzymol. 222, 96–128, and factor Xa was prepared as described in Bajaj et al., 1981, Prep. Biochem. 11, 397–412. Purified human factor XIa, protein C, activated protein C, and α-thrombin (IIa) were purchased from Enzyme Research Laboratories (South Bend, Ind.). Recombinant human tissue factor of aa 1–243 containing the transmembrane domain was generously provided by Genentech Inc. (South San Francisco, Calif.) and reconstituted as described in Sabharwal et al., 1995, J. Biol. Chem. 270, 15523–15530. Phosphatidylcholine-phosphatidylserine vesicles (75% phosphatidylcholine, 25% phosphatidylserine) were prepared by the method of Husten et al., 1987, J. Biol. Chem. 262, 12953–12966 as outlined in Sabharwal et al (Id.). Recombinant human factor VIIa was a generous gift of Novo-Nordisk (Copenhagen). Purified human factor VIII was obtained from Dr. Leon Hoyer (American Red Cross, Rockville, Md.). The preparation was free of all other coagulation factors and contained human albumin as a stabilizing agent. Purification of a mouse monoclonal antibody (mAb) that inhibits the interaction of factor IXa with factor VIIIa was as described in Bajaj et al., 1985, J. Biol. Chem. 260:11574–11580. […]

factor X = factor X (Homo sapiens, UniProt P00742); test: factor X activation in complete intrinsic Tenase system (IXa, Ca2+, phospholipid, VIIIa); parameters: Normal human plasma factor IX (IXNP) and factor X were isolated as described in Bajaj and Birktoft; from tissue; host or cells: human plasma (factor X); factor VIII obtained from Dr. Leon Hoyer, American Red Cross; settings: VIIIa increased from 70 pM to 14 nM, phospholipid present
Protocol: The ability of each activated mutant to activate factor X in the presence and absence of phospholipid and factor VIIIa was determined as follows. The activation was carried out at 37° C. in a 50 μl reaction volume, in TBS/BSA pH 7.4, for various time periods. At the end of the incubation time period, each reaction mixture received 1 μl of 0.5 M EDTA to stop further generation of factor Xa. A 40 μL aliquot was then added to 0.1 ml quartz cuvette containing S-2222 in 75 μL of TBS/BSA, pH 7.4. The final concentration of S-2222 was 100 μM. The p-nitroaniline release was measured continuously (ΔA405/min) for up to 20 min (Sabharwal et al., 1995 supra; Sabharwal et al., 1997, supra). Factor Xa generated was calculated from a standard curve constructed using factor Xa prepared from insolubilized Russell's viper venom.
Factor X activation measurements were made under four experimental regimes. In one, Ca^2+ and phospholipid were present. In this system activation was carried out for 5–15 minutes and the concentration of each IXa protein was 20 nM, phospholipid was 25 μM, and factor X was 100 nM. In the second regime, Ca^2+, phospholipid and factor VIIIa were present. […] In the third regime, only Ca^2+ was present. Here, activation was carried out for 2–20 min and concentration of each IXa protein was 400 nM and factor X was 1 μM. Finally, in the fourth regime, Ca^2+ and VIIIa were present. Here, activation was carried out for 15–120 sec and the concentration of each IXa protein was 2 μM, VIIIa was 14 nM, and factor X was 400 nM.
In all of the above factor X activation experiments, the incubation times chosen were those in which the factor Xa generated was always less than 10 nM. This precautionary measure was taken to prevent activation of factor X by the generated factor Xa (see, e.g., Link. and Castellino, 1982, Arch Biochem. Biophys. 215, 215–221). Further, in those incubation mixtures which contained […], control experiments were also performed in which factor VIIIa was omitted. […] In the presence of factor VIIIa, 10 μM phospholipid was used based upon previous observations (Mathur et al., 1997, supra; van Dieijen et al., 1981, J. Biol. Chem. 256, 3433–3442). The concentrations of factor X selected for each set of reaction conditions are those which are below or at the Km values (van Dieijen et al., supra; Fay and Koshibu, 1998, J Biol. Chem. 273, 19049–19054). In this region of the Michaelis-Menton curve, the rate of formation of factor Xa is proportional to the substrate factor X and therefore to the affinity of the factor IXa enzyme for factor X.
Next, the activation of factor X in a complete intrinsic Tenase system (IXa, Ca^2+, phospholipid, VIIIa) was studied.

[2] = system: Factor IX deficient plasma; test: coagulant activity of XIa-activated IXa proteins

Chain of factor X (P00742 183-488 limits assumed): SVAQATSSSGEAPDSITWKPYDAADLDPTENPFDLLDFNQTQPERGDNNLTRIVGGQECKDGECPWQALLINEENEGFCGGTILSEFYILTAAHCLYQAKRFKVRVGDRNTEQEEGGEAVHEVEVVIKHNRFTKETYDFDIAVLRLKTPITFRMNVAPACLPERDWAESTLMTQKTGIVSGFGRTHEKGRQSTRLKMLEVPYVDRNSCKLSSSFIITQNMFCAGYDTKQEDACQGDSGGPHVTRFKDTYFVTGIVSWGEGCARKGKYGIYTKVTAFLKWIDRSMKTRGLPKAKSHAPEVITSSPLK
Chain of factor X (P00742 41-179 limits assumed): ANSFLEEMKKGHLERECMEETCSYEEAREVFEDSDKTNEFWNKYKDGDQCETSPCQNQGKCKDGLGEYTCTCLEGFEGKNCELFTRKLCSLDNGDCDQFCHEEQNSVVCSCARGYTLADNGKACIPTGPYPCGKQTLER
Chain of factor X (P00451 20-759 partner limits assumed): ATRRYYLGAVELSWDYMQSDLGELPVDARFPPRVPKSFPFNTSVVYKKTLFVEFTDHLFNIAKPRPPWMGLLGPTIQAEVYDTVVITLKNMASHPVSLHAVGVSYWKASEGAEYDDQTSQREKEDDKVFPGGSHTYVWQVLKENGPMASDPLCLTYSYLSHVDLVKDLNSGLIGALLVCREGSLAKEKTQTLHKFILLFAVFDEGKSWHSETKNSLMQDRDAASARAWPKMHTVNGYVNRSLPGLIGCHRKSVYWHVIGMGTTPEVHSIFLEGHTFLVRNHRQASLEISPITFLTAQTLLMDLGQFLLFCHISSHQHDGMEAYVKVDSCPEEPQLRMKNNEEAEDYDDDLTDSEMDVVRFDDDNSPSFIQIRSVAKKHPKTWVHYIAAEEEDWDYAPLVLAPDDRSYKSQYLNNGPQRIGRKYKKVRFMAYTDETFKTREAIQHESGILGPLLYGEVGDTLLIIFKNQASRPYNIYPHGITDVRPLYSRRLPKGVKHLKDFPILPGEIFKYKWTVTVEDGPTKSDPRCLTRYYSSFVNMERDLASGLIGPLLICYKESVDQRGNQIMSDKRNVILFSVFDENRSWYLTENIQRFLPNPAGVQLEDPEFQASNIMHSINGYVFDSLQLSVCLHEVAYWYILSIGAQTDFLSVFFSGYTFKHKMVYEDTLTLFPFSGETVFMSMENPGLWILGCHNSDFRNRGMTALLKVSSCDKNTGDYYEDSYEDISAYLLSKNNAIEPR
Chain of factor X (P00451 1668-2351 partner limits assumed): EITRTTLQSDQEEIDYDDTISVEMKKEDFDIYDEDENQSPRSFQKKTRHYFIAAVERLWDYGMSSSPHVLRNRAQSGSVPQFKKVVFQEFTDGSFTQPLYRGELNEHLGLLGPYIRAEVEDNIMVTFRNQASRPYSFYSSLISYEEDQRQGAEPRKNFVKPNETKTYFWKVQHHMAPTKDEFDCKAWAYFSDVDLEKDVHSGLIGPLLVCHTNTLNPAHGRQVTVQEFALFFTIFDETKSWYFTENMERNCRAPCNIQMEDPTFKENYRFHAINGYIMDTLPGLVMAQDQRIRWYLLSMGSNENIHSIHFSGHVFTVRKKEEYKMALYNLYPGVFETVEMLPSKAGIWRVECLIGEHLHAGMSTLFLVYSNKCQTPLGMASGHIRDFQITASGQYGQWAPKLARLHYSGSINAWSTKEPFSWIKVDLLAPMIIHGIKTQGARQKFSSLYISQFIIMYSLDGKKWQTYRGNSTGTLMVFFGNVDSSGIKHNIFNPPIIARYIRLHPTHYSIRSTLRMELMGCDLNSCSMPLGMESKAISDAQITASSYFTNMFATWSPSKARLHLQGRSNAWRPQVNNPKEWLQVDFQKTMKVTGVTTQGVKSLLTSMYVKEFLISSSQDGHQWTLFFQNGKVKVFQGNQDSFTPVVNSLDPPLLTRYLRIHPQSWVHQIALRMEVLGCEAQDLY

Substance | relative coagulant activity [1] | coagulant activity (specific) ([1]; plasma factor IX) | rate of factor X activation at increased VIIIa (factor X) | coagulant activity as compared to IXaNP [2]
IXD332Y: recombinant factor IX point mutant D332Y | ~2% | – | – | –
IXL337I: recombinant factor IX point mutant L337I | ~1% | – | – | –
IXL3301: recombinant factor IX point mutant L330I in helix-330 of protease domain | ~8% | – | – | –
IXNP: Normal human plasma factor IX | 100% | 180±10 units/mg | – | –
IXR333L: recombinant factor IX point mutant R333L | 0.3% | – | – | –
IXR333Q: recombinant factor IX point mutant R333Q | ~0.5% | – | – | –
IXR338Q: recombinant factor IX point mutant R338Q | ~65% | – | – | –
IXT335A: recombinant factor IX point mutant T335A | ~40% | – | – | –
IXWT: recombinant wild-type factor IX [reference compound] | ~90% | – | – | –
IXaD332Y: activated factor IX mutant D332Y | – | – | ~4.1 nM/min | ~2%
IXaL337I: activated factor IX mutant L337I | – | – | ~3.2 nM/min | ~0.8%
IXaR333L: activated factor IX mutant R333L | – | – | ~2.7 nM/min | ~0.4%
IXaR333Q: activated factor IX mutant R333Q | – | – | ~2.4 nM/min | ~0.6%
IXaWT: factor XIa-activated recombinant wild-type factor IX [reference compound] | – | – | – | ~95%
IXahelixVII: activated factor IX chimera with helix 330–338 replaced by factor VII residues | – | – | not measurable | not measurable

From patent publication US7109170B2, “Region of factor IXa protease domain that interacts with factor VIIIa and methods therefor” (Saint Louis University, priority 1999, dated 2006)
